Consider 1 compound from paper PMC6931124, “NPY1R-targeted peptide-mediated delivery of a dual PPARα/γ agonist to adipocytes enhances adipogenesis and prevents diabetes progression” (Molecular Metabolism, 2019).

A short description of one data set: Serum Mcp-1. The data set is classed as in vivo. Conditions: db/db mice, 2.5 μmol/kg/day, 8 days; ELISA; n = 5. How it is done: (§1) All of the experiments were performed according to the animal ethical laws of the state Saxony, Germany, and were approved by the local animal ethics review board (Landesdirektion Sachsen, Leipzig, Germany). Female db/db mice 12–15 weeks of age were purchased from Taconic (Denmark) and housed in groups of 5 in temperature- and humidity-controlled facilities in a 12 h:12 h light–dark cycle and had free access to tap water and food (regular chow, Sniff, Soest, Germany). Three out of seven groups served as controls (N = 15, see Table 1). The 5 db/db mice were untreated and 10 db/db mice were vehicle treated either orally or intraperitoneally (i.p.). One additional group (n = 5) of lean C57BL/6NTac mice was used as a metabolically healthy control group. […]
(§2) Serum insulin (mouse insulin ELISA, Mercodia, Uppsala, Sweden), adiponectin (mouse adiponectin ELISA, AdipoGen, San Diego, CA, USA), leptin (mouse leptin ELISA, Crystal Chem, Downers Grove, IL, USA), and Mcp-1 (mouse/rat CCL2/JE/Mcp-1 Quantikine ELISA, R&D Systems, Minneapolis, MN, USA) levels were analyzed via ELISA according to the manufacturer's instructions. Serum concentrations of TG, FFA, and cholesterol were measured by an automatic chemical analyzer at the Institute of Laboratory Medicine and Clinical Chemistry.
(ELISA stands for enzyme-linked immunosorbent assay.)

For a further data set, the system named is 3T3-L1 preadipocytes. Briefly: AdipoRed adipogenesis assay, 3T3-L1. Format: cell-based, murine. The settings on record: 24 h; tesa 10/25/100 μM, tesa-NPY 100 μM; AdipoRed fluorescence, DMSO = 100%; n = 3 in quadruplicate. The protocol:
3T3-L1 or SGBS cells were seeded into 96-well plates and grown to complete confluency (set as day 0). On day 2 of confluence, the 3T3-L1 cells were differentiated by DMEM High Glucose Medium supplemented with 10% (v/v) not-heat inactivated FCS, 0.5 mM IBMX, 167 nM human insulin, and 1 μM dexamethasone (differentiation medium). On day 4, the medium was replaced by insulin medium (DMEM High Glucose Medium, 10% not-heat inactivated FCS, and 167 nM human insulin). On day 6, the medium was changed to standard culture medium and changed every other day until full differentiation was achieved (on day 8). The SGBS cells were differentiated as previously described. […] On day 4, the medium was replaced by 3FC medium (DMEM High Glucose Medium and Hams F12 (1:1 (v/v))) without FCS and supplemented with 0.01 mg human apo-transferrin, 20 nM human insulin, triiodo-L-thyronine, and 100 nM hydrocortisone. The medium was changed every second day until full differentiation was achieved (day 10). […]
(A, B) Cells were differentiated and stimulated according to the protocol depicted for 3T3-L1 (A) and for SGBS (B). […] (E,F) Expression of adipocyte-enriched genes in 3T3-L1 (E) or SGBS (F) adipocytes analyzed by qPCR. […] Statistical significances refer to DMSO-treated cells and were determined by one-way analysis of variance (ANOVA) followed by Dunnett's multiple comparison test, *≤0.05, **p ≤ 0.01, ***p ≤ 0.001.

Another data set in a line: Plasma free fatty acids. The data set is classed as in vivo. The settings on record: db/db mice, 2.5 μM/kg/day, 8 days; n = 5. How it is done: as §1, §2
The next data set is described as follows: Serum leptin. The data set is classed as in vivo. The settings on record: db/db mice, 2.5 μmol/kg/day, 8 days; ELISA; n = 5. How it is done:
as §1, §2

For data set [1] the following is noted: volunteers, ref [111]; cited from earlier work. The source says: Thus, the observed anti-diabetic effects are assumed to result from adipocyte-specific PPARγ-mediate ...
The subject of the next data set is SGBS cells. Briefly: qRT-PCR of adipocyte-marker genes, SGBS. The data set is classed as cell-based, human. The settings on record: qPCR, vs DMSO; n ≥ 3. The protocol: The 3T3-L1 or SGBS cells were seeded into 6-well plates and differentiated as previously described. Tesa or peptides were added to the differentiation medium at a concentration of 100 μM on day 2, followed by 12 h or 24 h incubation. On day 4, the cells were washed two times with PBS, harvested by trypsinization, and stored at −70 °C until RNA isolation was performed. […] N ≥ 3 independent experiments with two replicates were performed. For the cell culture experiments, the data were analyzed according to the 2^−ΔΔCt method using 36B4 or GAPDH as housekeeping genes and DMSO treatment as a control. Liver mRNA expression was calculated relative to 18sRNA, which was used as an internal control due to its resistance to glucose-dependent regulation. The mRNA levels were quantified using the standard curve method of QuantStudio 6 Flex software (Applied Biosystems, Foster City, CA, USA), determining the crossing points of the individual samples using an algorithm that identifies the first turning point of the fluorescence curve. Amplification of the specific transcripts was confirmed by the melting curve profiles (cooling the sample to 68 °C and heating slowly to 95 °C while measuring the fluorescence) at the end of each PCR [53].
(A, B) Cells were differentiated and stimulated according to the protocol depicted for 3T3-L1 (A) and for SGBS (B). […] Bars represent mean ± SEM from n = 3 independent experiments performed in quadruplicates. Measurements were normalized using DMSO (vehicle)-treated cells (set to 100%). Statistical significances refer to vehicle-treated cells. (E,F) Expression of adipocyte-enriched genes in 3T3-L1 (E) or SGBS (F) adipocytes analyzed by qPCR. Values represent mean ± SEM from n ≥ 3 independent experiments performed in duplicates. […] Statistical significances refer to DMSO-treated cells and were determined by one-way analysis of variance (ANOVA) followed by Dunnett's multiple comparison test, *≤0.05, **p ≤ 0.01, ***p ≤ 0.001.

A further data set is described as follows: HbA1C. The data set is classed as in vivo. The settings on record: db/db mice, 2.5 μM/kg/day, 8 days. How it is done: as §1, with “(i.p.).” for “(i.p.). One additional group (n = 5) of lean C57BL/6NTac mice was used as a metabolically healthy control group.”
All of the mice were monitored for 9 days during the treatment period. Body weight, food intake, and water uptake were recorded daily and body composition (lean body mass and whole body fat mass) was recorded at the beginning, middle, and end of the study in the conscious mice using an EchoMRI system (Echo Medical Systems, Houston, TX, USA). At the beginning and end of the treatment period, the HbA1c levels were determined from 5 μl of whole venous blood samples using an automated chemical analyzer at the Institute of Laboratory Medicine and Clinical Chemistry and beta-ketone using an automated glucose monitor (FreeStyle Precision H, Abbott GmbH, Ludwigshafen, Germany). […]

As for `CCO[C@@H](Cc1ccc(OCCc2ccc(OS(C)(=O)=O)cc2)cc1)C(=O)O` [tesa, tesaglitazar], in “Serum Mcp-1”, the Mcp-1 levels result was “no significant effect”. Besides, in the data set on 3T3-L1 preadipocytes, the “adipogenesis (triglyceride content), 3T3-L1” value is reported as “enhanced adipogenesis in both cell lines”. The “free fatty acids (FFA)” value in the data set “Plasma free fatty acids” was “normalization”. For the same compound, in the data set “Serum leptin”, the serum leptin concentration entry is “no significant effect”. Besides, in data set [1], the “absorption after oral dosing” value was “rapidly and completely absorbed after oral dosing”. In addition, in the data set with SGBS cells, the “Cidec expression, SGBS” value is “enhanced the expression of adiponectin, Fabp4, and Cidec”; the “Fabp4 expression, SGBS” value is “only Fabp4 induction by tesa reached significant differences”; the “adiponectin expression, SGBS” value was “enhanced the expression of adiponectin, Fabp4, and Cidec”. In addition, in the data set “HbA1C” (vehicle/untreated increased by approximately 2%, n = 5), the HbA1C change result is “graduated reduced increase”. Moreover, the diabetes progression result in the data set “HbA1C” (12-16 weeks old) is “deceleration of disease progression”.
